In US20060069132A1, “Azolecarboxamide herbicides” (priority 2004, published 2006):

Key:
[1] = system: hairy beggarticks; assay: Test E pre-/postemergence herbicide test; type: in vivo, Bidens radiata; settings: Preemergence
From the text: Seeds of plant species selected from bipinnate beggarticks (Bidens bipinnata L.), hairy beggarticks (Bidens radiata Thuill.), bermudagrass (Cynodon dactylon (L.) Pers.), Surinam grass (Urochloa decumbens (Staph) R. D. Webster, previously named Brachiaria decumbens Stapf), large crabgrass (Digitaria sanguinalis (L.) Scop.), green foxtail (Setaria viridis (L.) P. Beauv.), goosegrass (Eleusine indica (L.) Gaertn.), johnsongrass (Sorghum halepense (L.) Pers.), kochia (Kochia scoparia (L.) Schrad.), pitted morningglory (Ipomoea lacunosa L.), purple nutsedge (Cyperus rotundus L.), common ragweed (Ambrosia elatior L.), mustard (Brassica nigra (L.) W. D. J. Koch), guineagrass (Panicum maximum Jacq.), dallisgrass (Paspalum dilatatum Poir.), barnyardgrass (Echinochloa crus-galli (L). P. Beauv.), southern sandbur (Cenchrus echinatus L.), common sowthistle (Sonchus oleraceous L.), prickly sida (Sida spinosa L.), Italian ryegrass (Lolium multiflorum Lam.), common purslane (Portulaca oleracea L.), broadleaf signalgrass (Brachiaria platyphylla (Griseb.) Nash), common groundsel (Senecio vulgaris L.), common chickweed (Stellaria media (L.) Vill/Cyr.), tropical spiderwort (Commelina benghalensis L.), annual bluegrass (Poa annua L.), downy bromegrass (Bromus tectorum L.), itchgrass (Rottboellia cochinchinensis (L.) L.f.), quackgrass (Elytrigia repens (L.) Nevski), Canada horseweed (Erigeron Canadensis L.), field bindweed (Convolvulus arvensis L.), spotted spurge (Euphorbia maculata L.), common mallow (Malva sylvestris (=s silvestris) L.), and Russian thistle (Salsola kali L. ssp. Ruthenica (Iljin) Soo) were planted and treated preemergence with test chemicals formulated in a non-phytotoxic solvent mixture which included a surfactant.
At the same time, plants selected from these weed species were treated with postemergence applications of some of the test chemicals formulated in the same manner. Plants ranged in height from 2 to 18 cm (1- to 4-leaf stage) for postemergence treatments. Treated plants and controls were maintained in a greenhouse for 12 to 14 days, after which time all species were compared to controls and visually evaluated. Plant response ratings, summarized in Table E, are based on a scale of 0 to 100 where 0 is no effect and 100 is complete control. A dash (-) response means no test result.

[2] = system: transplanted rice seedlings; assay: Test D flooded paddy test; type: in vivo, Oryza sativa; settings: 21 days, scale 0 to 100
From the text: (§1) Three plastic pots (ca. 16-cm diameter) per rate were partially filled with sterilized Tama silt loam soil comprising a 35:50:15 ratio of sand, silt and clay and 2.6% organic matter. Separate plantings for each of the three pots were as follows. Seeds from the U.S. of ducksalad (Heteranthera limosa (Sw.) Willd.), smallflower umbrella sedge (Cyperus difformis L.) and purple redstem (Ammannia coccinea Rottb.), were planted into one 16-cm pot for each rate. Seeds from the U.S. of rice flatsedge (Cyperus iria L.), bearded sprangletop (Leptochloa fascicularis (Lam.) Gray), one stand of 9 or 10 water seeded rice seedlings (Oryza sativa L. cv. ‘Japonica—M202’), and one stand of 6 transplanted rice seedlings (Oryza sativa L. cv. ‘Japonica—M202’) were planted into one 16-cm pot for each rate. Seeds from the U.S. of barnyardgrass (Echinochloa crus-galli (L.) Beauv.), late watergrass (Echinochloa oryzicola Vasinger), early watergrass (Echinochloa oryzoides (Ard.) Fritsch) and junglerice (Echinochloa colona (L.) Link) were planted into one 16-cm pot for each rate. Plantings were sequential so that crop and weed species were at the 2.0 to 2.5-leaf stage at time of treatment.
(§2) Potted plants were grown in a greenhouse with day/night temperature settings of 29.5/26.7° C., and supplemental balanced lighting was provided to maintain a 16-hour photoperiod. Test pots were maintained in the greenhouse until test completion.
(§3) At time of treatment, test pots were flooded to 3 cm above the soil surface, treated by application of test compounds directly to the paddy water, and then maintained at that water depth for the duration of the test. Effects of treatments on rice and weeds were visually evaluated by comparison to untreated controls after 21 days. Plant response ratings are reported on a 0 to 100 scale; where 0 is no effect and 100 is complete control. A dash (-) response means no test result.

[3] = system: water seeded rice seedlings; assay: Test D flooded paddy test; type: in vivo, Oryza sativa; settings: 21 days, scale 0 to 100
From the text: as §1, §2, §3

[4] = system: barnyardgrass; assay: Test D flooded paddy test; type: in vivo, Echinochloa crus-galli; settings: 21 days, scale 0 to 100
From the text: as §1, §2, §3

Structure (SMILES)	Plant response rating, Beggarticks, Hairy ([1]; 62 g ai/ha, scale 0 to 100)	Plant response rating, Beggarticks, Hairy ([1]; 125 g ai/ha, scale 0 to 100)	Plant response rating, Beggarticks, Hairy ([1]; 250 g ai/ha, scale 0 (no effect) to 100 (complete control))	Plant response rating, Beggarticks, Hairy ([1]; 500 g ai/ha, scale 0 (no effect) to 100 (complete control))	Plant response rating, Rice, Transplanted ([2]; 32 g ai/ha)	Plant response rating, Rice, Transplanted ([2]; 64 g ai/ha)	Plant response rating, Rice, Transplanted ([2]; 125 g ai/ha)	Plant response rating, Rice, Transplanted ([2]; 250 g ai/ha)	Plant response rating, Rice, Transplanted ([2]; 500 g ai/ha)	Plant response rating, Rice, Water Seeded ([3]; 32 g ai/ha)	Plant response rating, Rice, Water Seeded ([3]; 64 g ai/ha)	Plant response rating, Rice, Water Seeded ([3]; 125 g ai/ha)	Plant response rating, Rice, Water Seeded ([3]; 250 g ai/ha)	Plant response rating, Rice, Water Seeded ([3]; 500 g ai/ha)	Plant response rating, Barnyardgrass ([4]; 32 g ai/ha)	Plant response rating, Barnyardgrass ([4]; 64 g ai/ha)	Plant response rating, Barnyardgrass ([4]; 125 g ai/ha)	Plant response rating, Barnyardgrass ([4]; 250 g ai/ha)	Plant response rating, Barnyardgrass ([4]; 500 g ai/ha)
CCN1N=C(C(C)(C)C)CC1C(=O)Nc1cc(C(=O)N(C)C)ccc1F (stereo not shown) [Compound 268, N-[5-[(dimethylamino)carbonyl]-2-fluorophenyl]-3-(1,1-dimethylethyl)-1-ethyl-4,5-dihydro-1H-pyrazole-5-carboxamide]	40	95	100	100															
CCn1nc(C(C)(C)C)cc1C(=O)Nc1cc(C(=O)NCC2CC2)ccn1 [Compound 155]					0	0	20	30	30	0	0	25	35	40	0	0	20	35	80
